pIC50: −log10 of the molar value. Values after ≈ are worked out from the molar mass of the structure shown. Like-named read-outs stand apart in the source and are kept apart here.
Experiments:
kynurenin-3-hydroxylase [1] = target: T1, kynurenin-3-hydroxylase (Rattus norvegicus, UniProt O88867); test: ex vivo kynurenin-3-hydroxylase inhibition in the liver after oral administration to rats; conditions: 2 hours; for ED50: po
T1 construct: The enzyme source is a crude rat kidney mitochondrial preparation; from tissue; host or cells: rat kidney, crude mitochondrial preparation
Experimental: (§1) Determination of kynurenin-3-hydroxylase in vitro and ex vivo
(§2) The kynurenin-3-hydroxylase inhibiting activity of the compounds in accordance with the invention can be determined in vitro and ex vivo using standard methods. The preparations to be tested were examined in the tests described hereinafter, which are based on the methods published by J. B. Erickson, E. M. Flanagan, S. Russo and J. F. Reinhard [Anal. Biochem. 1992, 205: 257-262].
The substances to be tested are administered orally to male rats of 100-140 g body weight in a dosage of 30 μmol/kg. The kidneys and a part of the liver are removed from the animals, which are decapitated after 2 hours, and frozen at -80° C. until used. In order to measure the enzyme activity, the organs are homogenized in the ratio 1:10 (weight/volume) in sucrose, containing TRIS/HCl, pH 7.4 and PMSF.
(§3) Measurement of the enzyme activity
(§4) Scheme of a typical procedure carried out in an incubation tube of appropriate size or on a microtitre plate:
(§5) 25 μl of the substance to be tested in a suitable concentration (in vitro) or homogenization buffer (ex vivo)
(§6) 25 μl of potassium phosphate buffer 0.2M containing 0.4 units of glucose-6-phosphate dehydrogenase
(§7) 25 μl of the mitochondrial preparation (in vitro) or of the kidney or liver homogenate (ex vivo)
(§8) 25 μl of the substrate L-kynurenin containing L-^3 H-3-kynurenin (0.1 μCi)
(§9) 100 μmol, magnesium chloride 4 mmol, NADPH 200 μmol, glucose-6-phosphate 3 mmol (concentration data as final concentrations)
(§10) incubation: 10 min (in vitro) or 2 min (ex vivo) at 37° C. on a shaking machine
(§11) 150 μl of a 10% suspension of active charcoal (Norit A) in water (to remove unreacted labelled substrate)
(§12) shaking for about one minute
(§13) centrifugation for 4 min at 4000 revolutions/min
(§14) transfer of 50 μl of the charcoal-free supernatant into a counting vessel
(§15) addition of 150 μl of an appropriate scintillator to count the radioactivity of the now-tritiated water, which is a measurement of the enzyme activity which exists.
The ED50 value or, where this is not achieved, the percentage inhibition after administration of a single dosage, is a measurement of the strength of the ex vivo enzyme inhibition which is brought about by the tested substances. The ED50 value is that dosage of test substance which leads to a 50% enzyme inhibition in the investigated tissue homogenates.

kynurenin-3-hydroxylase [2] = target: T1, kynurenin-3-hydroxylase; test: in vitro kynurenin-3-hydroxylase inhibition (crude rat kidney mitochondrial preparation); type: biochemical; conditions: for remaining activity at 1 µM: read-out: % of control at 1 μM; for pIC50: pH 7.4
Description: as §1, §2
The enzyme source is a crude rat kidney mitochondrial preparation which, taken up in the ratio 1:70 (weight/volume) in a potassium phosphate buffer of pH 7.4, containing EGTA, is kept in the frozen state at -80° C. until used. The enzyme test for the in vitro determination differs from the ex vivo determination described hereinafter by the use of the mentioned mitochondreal preparation in place of tissue homogenates as the enzyme source and by a pre-incubation of the enzyme with the substances to be tested at 37° C. for 15 min.
as §3, §4, §5, §6, §7
pre-incubation: 15 min at 37° C. (only in vitro)
as §8, §9, §10, §11, §12, §13, §14, §15
The IC50 value is a measurement of the strength of the in vitro enzyme inhibition which is brought about by the tested substances. It is the concentration of test substance which brings about a 50% inhibition of the enzyme activity.

Enterococcus faecalis = test: antibacterial activity, MIC by microdilution; type: cell-based
Experimental: (§16) Method for the determination of antibacterial activity
(§17) The minimum inhibitory concentration (MIC in μg/ml) was determined by the microdilution method in which an Isosensotest bouillon (Oxoid) was used and was complemented with 3% horse blood for Streptococcus and Listeria. The inoculation amount was approximately 5×10^5 CFU/ml. After incubation at 37° C. for 18 h the plates were evaluated at 650 nm. The MIC was determined as the lowest concentration of active substance which brought about a growth inhibition of ≥80% compared to the control.

Streptococcus pyogenes = test: antibacterial activity, MIC by microdilution; type: cell-based; conditions: 18 h
Experimental: as §16, §17

Streptococcus pneumoniae = test: antibacterial activity, MIC by microdilution; type: cell-based
Experimental: as §16, §17

Pseudomonas aeruginosa = test: antibacterial activity, MIC by microdilution; type: cell-based; conditions: 18 h
Experimental: as §16, §17

Staphylococcus aureus = test: antibacterial activity, MIC by microdilution; type: cell-based
Experimental: as §16, §17

Listeria monocytogenes = test: antibacterial activity, MIC by microdilution; type: cell-based; conditions: 18 h
Experimental: as §16, §17

Escherichia coli = test: antibacterial activity, MIC by microdilution; type: cell-based; conditions: ATCC25922, strain ATCC 25922, BCB 1001/04, 37° C., 18 h
Experimental: as §16, §17

[3] = ATCC29212, strain ATCC 29212, BCB 1003/28, 37° C., 18 h, read-out: MIC
[4] = strain B15, BCB 1003/35, 3% horse blood, 37° C., read-out: MIC
[5] = ATCC49619, strain ATCC 49619, 3% horse blood, 37° C., 18 h, read-out: MIC
[6] = strain BA, BCB 1004/01, 37° C., read-out: MIC
[7] = ATCC25923, strain ATCC 25923, BCB 1003/04, 37° C., 18 h, read-out: MIC
[8] = strain BK23, BCB 1003/55, 3% horse blood, 37° C., read-out: MIC

T1 sequence (O88867 whole entry): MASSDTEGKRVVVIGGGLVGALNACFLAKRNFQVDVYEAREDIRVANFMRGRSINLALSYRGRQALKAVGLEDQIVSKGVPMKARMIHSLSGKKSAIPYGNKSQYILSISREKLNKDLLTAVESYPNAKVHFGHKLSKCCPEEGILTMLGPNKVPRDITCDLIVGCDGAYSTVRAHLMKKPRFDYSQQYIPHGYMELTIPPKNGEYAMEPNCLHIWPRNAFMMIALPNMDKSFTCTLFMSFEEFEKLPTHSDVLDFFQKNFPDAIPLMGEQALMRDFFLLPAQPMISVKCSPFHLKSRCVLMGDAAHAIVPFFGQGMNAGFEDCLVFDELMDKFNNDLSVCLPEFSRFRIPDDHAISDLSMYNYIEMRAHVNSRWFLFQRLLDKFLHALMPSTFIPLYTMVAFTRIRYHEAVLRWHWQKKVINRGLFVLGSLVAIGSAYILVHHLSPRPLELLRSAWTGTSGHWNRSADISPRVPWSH

Row | SMILES | % of control 30 μM/kg p.o in the liver (kynurenin-3-hydroxylase [1]) | remaining activity at 1 µM (kynurenin-3-hydroxylase [2]) | pIC50 (kynurenin-3-hydroxylase [2]) | ED50 (kynurenin-3-hydroxylase [1]) | MIC (Escherichia coli) | other results
1 | Cc1ccc(S(=O)(=O)Nc2nc(-c3cccc([N+](=O)[O-])c3)cs2)cc1 [Example 3, 4-Methyl-N-[4-(3-nitro-phenyl)-thiazol-2-yl]-benzene-sulfonamide] | 43.00% |  | 7.40 |  |  | 
2 | COc1ccc(-c2csc(NS(=O)(=O)c3ccc(C)cc3)n2)cc1OC [Example 6, N-[4-(3,4-Dimethoxy-phenyl)-thiazol-2-yl]-4-methyl-benzenesulfonamide] | 54.00% | 4.58% | 7.19 |  |  | 
3 | Nc1ccc(S(=O)(=O)Nc2nc(-c3cc(C(F)(F)F)ccc3F)cs2)cc1 [Example 42, 4-Amino-N-[4-(2-fluoro-5-trifluoromethyl-phenyl)-thiazol-2-yl]benzenesulfonamide] |  | 1.4% | 7.82 | 4.6 µmol/kg | 256 µg/mL (≈ 613 µM) | MIC (Enterococcus faecalis; [3]): > 256 µg/mL; MIC (Streptococcus pyogenes; [4]): 16 µg/mL (≈ 38.3 µM); MIC (Streptococcus pneumoniae; [5]): > 256 µg/mL; MIC (Pseudomonas aeruginosa; [6]): > 256 µg/mL; MIC (Staphylococcus aureus; [7]): 16 µg/mL (≈ 38.3 µM); MIC (Listeria monocytogenes; [8]): > 256 µg/mL
4 | COc1ccc(S(=O)(=O)Nc2nc(-c3cc(C(F)(F)F)ccc3F)cs2)cc1OC [Example 46, 3,4-Dimethoxy-N-[4-(2-fluoro-5-trifluoromethyl-phenyl)-thiazol-2-yl]benzenesulfonamide] |  | 4.7% | 7.66 | 5.3 µmol/kg | > 256 µg/mL | MIC (Enterococcus faecalis; [3]): > 256 µg/mL; MIC (Streptococcus pyogenes; [4]): 64 µg/mL (≈ 138 µM); MIC (Streptococcus pneumoniae; [5]): > 256 µg/mL; MIC (Pseudomonas aeruginosa; [6]): > 256 µg/mL; MIC (Staphylococcus aureus; [7]): 32 µg/mL (≈ 69.2 µM); MIC (Listeria monocytogenes; [8]): > 256 µg/mL
5 | Cc1cc(NS(=O)(=O)c2ccc(N)cc2)no1 [SMZ, sulfamethoxazole, reference compound] |  |  |  |  | 128 µg/mL (≈ 505 µM) | MIC (Enterococcus faecalis; ATCC29212, 18 h): > 256 µg/mL; MIC (Streptococcus pyogenes): 16 µg/mL (≈ 63.2 µM); MIC (Streptococcus pneumoniae; ATCC49619, 18 h): > 256 µg/mL; MIC (Pseudomonas aeruginosa): > 256 µg/mL; MIC (Staphylococcus aureus; ATCC25923, 18 h): 32 µg/mL (≈ 126 µM); MIC (Listeria monocytogenes): > 256 µg/mL
6 | COc1cc(Cc2cnc(N)nc2N)cc(OC)c1OC [TMP, trimethoprim, reference compound] |  |  |  |  | 1 µg/mL (≈ 3.44 µM) | MIC (Enterococcus faecalis; ATCC29212, 18 h): 0.125 µg/mL (≈ 0.431 µM); MIC (Streptococcus pyogenes; [4]): 2 µg/mL (≈ 6.89 µM); MIC (Streptococcus pneumoniae; [5]): 4 µg/mL (≈ 13.8 µM); MIC (Pseudomonas aeruginosa; [6]): 8 µg/mL (≈ 27.6 µM); MIC (Staphylococcus aureus; [7]): 0.5 µg/mL (≈ 1.72 µM); MIC (Listeria monocytogenes; [8]): 0.25 µg/mL (≈ 0.861 µM)

The next lines start with results.

Row | % of control 30 μM/kg p.o in the liver (kynurenin-3-hydroxylase [1]) | remaining activity at 1 µM (kynurenin-3-hydroxylase [2]) | pIC50 (kynurenin-3-hydroxylase [2]) | ED50 (kynurenin-3-hydroxylase [1]) | SMILES | MIC (Escherichia coli) | other results
7 | 20.00% | 4% | 7.52 |  | O=[N+]([O-])c1cccc(-c2csc(NS(=O)(=O)c3ccc4ccccc4c3)n2)c1 [D, Naphthalene2-sulfonic acid [4(3-nitro-phenyl)-thiazol-2-yl)-amide] |  | 
8 | 23.00% | 5% | 7.36 | 9 µmol/kg | COc1ccc(S(=O)(=O)Nc2nc(-c3cccc([N+](=O)[O-])c3)cs2)cc1 [Example 8, 4-Methoxy-N-[4-(3-nitro-phenyl)-thiazol-2-yl]-benzenesulfonamide] |  | 
9 | 10.00% | 2% | 7.59 | 4.7 µmol/kg | COc1ccc(S(=O)(=O)Nc2nc(-c3cccc([N+](=O)[O-])c3)cs2)cc1OC [Example 21, 3,4-Dimethoxy-N-[4-(3-nitro-phenyl)-thiazol-2-yl]-benzenesulfonamide] |  | 
10 |  | 2.5% | 7.37 | 17 µmol/kg | Cc1ccc(S(=O)(=O)Nc2nc(-c3cc(C(F)(F)F)ccc3F)cs2)cc1 [Example 32, N-[4-(2-Fluoro-5-trifluoromethyl-phenyl)-thiazol-2-yl]-4-methyl-benzenesulfonamide] |  | 
11 |  | 18% | 7.30 | 17 µmol/kg | COc1ccc(S(=O)(=O)Nc2nc(-c3cc(C(F)(F)F)ccc3F)cs2)cc1 [Example 41, N-[4-(2-fluoro-5-trifluoromethyl-phenyl)-thiazol-2-yl]-4-methoxy-benzenesulfonamide] |  | 

Source: patent US5877193A, “Use of N-(4-aryl-thiazol-2-yl)-sulfonamides” (Hoffmann-La Roche Inc., priority 1996, dated 1999)
